Laboratory results reported in patent publication US20240252488A1 (KOREA RESEARCH INSTITUTE OF CHEMICAL TECHNOLOGY, priority 2020, published 2024).
Where a name gives a salt, the structure may show the parent alone.

Assays:
FADD−/− Jurkat cells = experiment: Necroptosis inhibition assay, TNF-α-induced necroptosis (CellTiter-Glo 2.0); format: cell-based, human; settings: TNF-α 15 ng/mL; for Necroptosis inhibition assay (Rescue %) 1 μM: compound 1 μM; for Necroptosis inhibition assay (Rescue %) 10 μM: compound 10 μM
Protocol: Necroptosis Inhibition Assay
Necroptosis inhibition was evaluated by the following method.
80 μL of FADD gene-defective human T lymphocyte cells (FADD−/− Jurkat cells) were equally distributed into each well at 5.0×10^5 cells/mL in a white 96-well plate with a transparent bottom. 20 μL of the medium containing test compound was treated in each well so that the final concentration of the compound was 0.1, 1, and 10 μM, and reacted at room temperature for 30 minutes. After the 30-minute reaction was over, TNF (tumor necrosis factor)-α was treated in the corresponding well so that the final concentration of TNF-α was 15 ng/mL in order to induce necroptosis. It was cultured in a 5% CO2, 37° C. incubator for 20 to 24 hours.
After incubation, the 96-well plate was left at room temperature for 30 minutes. After 30 minutes, Promega's CellTiter-Glo 2.0 reagent was diluted 1:3 with PBS and 100 μL of the diluted solution was added to each well to confirm cell viability by measuring the amount of ATP. After the treatment, the plate was shielded from light and incubated at room temperature for 2 minutes with orbital shaking, and then left at room temperature for 10 minutes without shaking. After measuring the luminescence at 0.5 seconds per well using a plate scanner, the cytotoxicity and necroptosis inhibition rate for the compound were calculated using the measured values.

MLKL = target: T1, MLKL (Homo sapiens, UniProt Q8NB16); experiment: Measurement of binding affinity with MLKL receptor (competitive binding assay, Kd); design: made in house; host or cells: HEK 293 cell line (T7 phage in E. coli BL21-derived host is also described)
T1 sequence (Q8NB16 1-471): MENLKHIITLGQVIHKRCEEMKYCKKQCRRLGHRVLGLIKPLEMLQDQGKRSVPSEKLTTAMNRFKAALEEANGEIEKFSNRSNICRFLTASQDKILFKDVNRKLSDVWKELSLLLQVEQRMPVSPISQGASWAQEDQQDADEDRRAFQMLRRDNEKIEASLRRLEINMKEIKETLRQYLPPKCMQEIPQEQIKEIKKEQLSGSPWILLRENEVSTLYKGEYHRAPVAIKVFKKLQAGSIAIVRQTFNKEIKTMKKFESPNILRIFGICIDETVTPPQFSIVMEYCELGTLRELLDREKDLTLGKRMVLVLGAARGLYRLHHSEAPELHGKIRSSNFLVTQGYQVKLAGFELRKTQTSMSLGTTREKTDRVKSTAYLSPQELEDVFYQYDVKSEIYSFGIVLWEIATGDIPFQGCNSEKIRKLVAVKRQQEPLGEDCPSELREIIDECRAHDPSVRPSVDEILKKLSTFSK
Protocol: Measurement of Binding Affinity with MLKL Receptor (Competitive Binding Assay)
The binding affinity was evaluated by measuring the Kd value in the following method.
To prepare kinase-tagged T7 phage strains in an E. coli host derived from the BL21 strain, E. coli were grown to log-phase and infected with T7 phage and incubated with shaking at 32° C. until lysis. The lysates were centrifuged and filtered to remove cell debris. For kinase production, it was expressed in human embryonic kidney cell line (HEK 293 cell line), and subsequently tagged with DNA for qPCR detection.
The liganded beads were blocked with excess biotin and washed with blocking buffer (SeaBlock (Pierce), 1% BSA, 0.05% Tween 20, 1 mM DTT) to remove unbound ligand and to reduce non-specific binding. […] Test compounds were prepared as 111× stocks in 100% DMSO.
The compounds were then diluted directly into the assays such that the final concentration of DMSO was 0.9%. All reactions performed in polypropylene 384-well plate. Each was a final volume of 0.02 ml. […] The kinase concentration in the eluates was measured by qPCR.

| Compound | Kd (MLKL) [nM] | Necroptosis inhibition assay (Rescue %) 1 μM (FADD−/− Jurkat cells) [%] | Necroptosis inhibition assay (Rescue %) 10 μM (FADD−/− Jurkat cells) [%] |
| --- | --- | --- | --- |
| Nc1nccnc1C(=O)O[C@H](C(=O)Nc1ccc(F)cc1)c1ccccc1 [TDH-002, (S)-2-((4-fluorophenyl)amino)-2-oxo-1-phenylethyl 3-aminopyrazine-2-carboxylate] | > 10000 | 6.35 |  |
| CC1CCC(NC(=O)[C@H](OC(=O)c2nc(-c3cnn(C4CCNCC4)c3)cnc2N)c2ccccc2)CC1 (stereo partly drawn) [TDH-424, (R)-2-((4-methylcyclohexyl)amino)-2-oxo-1-phenylethyl 3-amino-6-(1-(piperidin-4-yl)-1H-pyrazol-4-yl)pyrazine-2-carboxylate hydrochloride] | 5.1 |  |  |
| Nc1ncc(-c2cnn(C3CCNCC3)c2)nc1C(=O)O[C@@H](C(=O)Nc1ccc(C(F)(F)F)cc1)c1ccccc1 [TDH-459, (R)-2-oxo-1-phenyl-2-((4-(trifluoromethyl)phenyl)amino)ethyl 3-amino-6-(1-(piperidin-4-yl)-1H-pyrazol-4-yl)pyrazine-2-carboxylate hydrochloride] | 6.5 |  |  |
| Nc1ncc(-c2cnn(C3CCNCC3)c2)nc1C(=O)O[C@@H](C(=O)Nc1ccccc1)c1ccccc1 [TDH-463, (R)-2-oxo-1-phenyl-2-(phenylamino)ethyl 3-amino-6-(1-(piperidin-4-yl)-1H-pyrazol-4-yl)pyrazine-2-carboxylate hydrochloride] | 0.35 |  |  |
| Nc1ncc(-c2cnn(C3CCNCC3)c2)nc1C(=O)O[C@@H](C(=O)Nc1cccnc1)c1ccccc1 [TDH-468, (R)-2-oxo-1-phenyl-2-(pyridin-3-ylamino)ethyl 3-amino-6-(1-(piperidin-4-yl)-1H-pyrazol-4-yl)pyrazine-2-carboxylate hydrochloride] | 1.7 |  |  |
| CN(C)c1ccc(NC(=O)[C@H](OC(=O)c2nc(-c3cnn(C4CCNCC4)c3)cnc2N)c2ccccc2)cc1 [TDH-470, (R)-2-((4-(dimethylamino)phenyl)amino)-2-oxo-1-phenylethyl 3-amino-6-(1-(piperidin-4-yl)-1H-pyrazol-4-yl)pyrazine-2-carboxylate hydrochloride] | 3.8 |  |  |
| Nc1ncc(-c2cnn(C3CCNCC3)c2)nc1C(=O)O[C@@H](C(=O)Nc1ccncc1)c1ccccc1 [TDH-479, (R)-2-oxo-1-phenyl-2-(pyridin-4-ylamino)ethyl 3-amino-6-(1-(piperidin-4-yl)-1H-pyrazol-4-yl)pyrazine-2-carboxylate--2,2,2-trifluoroacetaldehyde] | 5.6 |  |  |
| Nc1ncc(-c2cnn(C3CCNCC3)c2)nc1C(=O)OC(C(=O)Nc1ccc(F)cc1)c1ccc(F)cc1 (stereo not shown) [TDH-489, 1-(4-fluorophenyl)-2-((4-fluorophenyl)amino)-2-oxoethyl 3-amino-6-(1-(piperidin-4-yl)-1H-pyrazol-4-yl)pyrazine-2-carboxylate hydrochloride] | 1.2 |  |  |
| CN(C(=O)c1nc(-c2cnn(C3CCNCC3)c2)cnc1N)[C@@H](C(=O)Nc1ccc(F)cc1)c1ccccc1 [TDH-490, (R)-3-amino-N-(2-((4-fluorophenyl)amino)-2-oxo-1-phenylethyl)-N-methyl-6-(1-(piperidin-4-yl)-1H-pyrazol-4-yl)pyrazine-2-carboxamide hydrochloride] | 400 |  |  |
| Nc1ncc(-c2cnn(C3CCNCC3)c2)nc1C(=O)O[C@@H](C(=O)Nc1ccc(F)cc1)c1cccc(Cl)c1 [hydrochloride] | 2 |  |  |

Continued, in another order:

| Kd (MLKL) [nM] | Compound | Necroptosis inhibition assay (Rescue %) 1 μM (FADD−/− Jurkat cells) [%] | Necroptosis inhibition assay (Rescue %) 10 μM (FADD−/− Jurkat cells) [%] |
| --- | --- | --- | --- |
| 30 | Nc1ncc(C2=CCN(C(=O)CCCCCNC(=O)CNc3ccc4c(c3)C(=O)N(C3CCC(=O)NC3=O)C4=O)CC2)cc1C(=O)O[C@@H](C(=O)Nc1ccc(F)cc1)c1ccccc1 (stereo partly drawn) [TDH-072, (R)-2-((4-fluorophenyl)amino)-2-oxo-1-phenylethyl 6-amino-1′-(6-(2-((2-(2,6-dioxopiperidin-3-yl)-1,3-dioxoisoindolin-5-yl)amino)acetamido)hexanoyl)-1′,2′,3′,6′-tetrahydro-[3,4′-bipyridine]-5-carboxylate] | 12.25 | 1.53 |
| 210 | Nc1ncc(C2=CCN(C(=O)CCCCCNc3cccc4c3C(=O)N(C3CCC(=O)NC3=O)C4=O)CC2)cc1C(=O)O[C@@H](C(=O)Nc1ccc(F)cc1)c1ccccc1 (stereo partly drawn) [TDH-073, (R)-2-((4-fluorophenyl)amino)-2-oxo-1-phenylethyl 6-amino-1′-(6-((2-(2,6-dioxopiperidin-3-yl)-1,3-dioxoisoindolin-4-yl)amino)hexanoyl)-1′,2′,3′,6′-tetrahydro-[3,4′-bipyridine]-5-carboxylate] |  | 3.26 |
| 74 | Nc1ncc(C2=CCN(C(=O)CCCCCNC(=O)C3CCN(c4ccc5c(c4)C(=O)N(C4CCC(=O)NC4=O)C5=O)CC3)CC2)cc1C(=O)O[C@@H](C(=O)Nc1ccc(F)cc1)c1ccccc1 (stereo partly drawn) [TDH-074, (R)-2-((4-fluorophenyl)amino)-2-oxo-1-phenylethyl 6-amino-1′-(6-(1-(2-(2,6-dioxopiperidin-3-yl)-1,3-dioxoisoindolin-5-yl)piperidine-4-carboxamido)hexanoyl)-1′,2′,3′,6′-tetrahydro-[3,4′-bipyridine]-5-carboxylate] | 14.54 | 3.61 |
| 140 | Nc1ncc(C2=CCN(C(=O)CCCCCNc3ccc4c(c3)C(=O)N(C3CCC(=O)NC3=O)C4=O)CC2)cc1C(=O)O[C@@H](C(=O)Nc1ccc(F)cc1)c1ccccc1 (stereo partly drawn) [TDH-075, (R)-2-((4-fluorophenyl)amino)-2-oxo-1-phenylethyl 6-amino-1′-(6-((2-(2,6-dioxopiperidin-3-yl)-1,3-dioxoisoindolin-5-yl)amino)hexanoyl)-1′,2′,3′,6′-tetrahydro-[3,4′-bipyridine]-5-carboxylate] | 10.02 | 9.05 |
| 45 | Nc1ncc(C2=CCN(C(=O)CCCCCNC(=O)CNc3cccc4c3C(=O)N(C3CCC(=O)NC3=O)C4=O)CC2)cc1C(=O)O[C@@H](C(=O)Nc1ccc(F)cc1)c1ccccc1 (stereo partly drawn) [TDH-079, (R)-2-((4-fluorophenyl)amino)-2-oxo-1-phenylethyl 6-amino-1′-(6-(2-((2-(2,6-dioxopiperidin-3-yl)-1,3-dioxoisoindolin-4-yl)amino)acetamido)hexanoyl)-1′,2′,3′,6′-tetrahydro-[3,4′-bipyridine]-5-carboxylate] |  | 0.94 |
| 1.1 | CC(=O)N1CC[C@@H](n2cc(-c3cnc(N)c(C(=O)OC(C(=O)Nc4ccc(F)cc4)c4ccccc4)n3)cn2)C1 (stereo partly drawn) [TDH-229, 2-((4-fluorophenyl)amino)-2-oxo-1-phenylethyl 6-(1-((R)-1-acetylpyrrolidin-3-yl)-1H-pyrazol-4-yl)-3-aminopyrazine-2-carboxylate] |  |  |
| 0.82 | Cc1ccc(NC(=O)[C@H](OC(=O)c2nc(-c3cnn(C4CCNCC4)c3)cnc2N)c2ccccc2)cc1 [TDH-319, (R)-2-oxo-1-phenyl-2-(p-tolylamino)ethyl 3-amino-6-(1-(piperidin-4-yl)-1H-pyrazol-4-yl)pyrazine-2-carboxylate hydrochloride] |  |  |
| 1.7 | Cc1ccc([C@@H](OC(=O)c2nc(-c3cnn(C4CCNCC4)c3)cnc2N)C(=O)Nc2ccc(F)cc2)cc1 [TDH-320, (R)-2-((4-fluorophenyl)amino)-2-oxo-1-(p-tolyl)ethyl 3-amino-6-(1-(piperidin-4-yl)-1H-pyrazol-4-yl)pyrazine-2-carboxylate hydrochloride] |  |  |
| 1.1 | CC(=O)N1CCC(n2cc(-c3cnc(N)c(C(=O)O[C@@H](C(=O)Nc4ccc(F)cc4)c4ccc(Cl)cc4)n3)cn2)CC1 [TDH-325, (R)-1-(4-chlorophenyl)-2-((4-fluorophenyl)amino)-2-oxoethyl 6-(1-(1-acetylpiperidin-4-yl)-1H-pyrazol-4-yl)-3-aminopyrazine-2-carboxylate] |  |  |
